From patent US7833964B2, “Methods of reducing visceral fat by increasing levels of insulin-like growth factor-I (IGF-I)” (Tercica, Inc., priority 2003, dated 2010)
Values joined by “and” are separate entries in the source; they are usually repeats but may differ in a detail not shown here. Equal entries are not always repeated.

Tests used:
[1] = ETDRS retinopathy score by fundus photography; format: in vivo, human
Procedure: Because concern existed regarding the effects of rhIGF-I on two types of ocular findings—progression of diabetic retinopathy and optic disc swelling—the occurrence of such findings was recorded as a measure of safety. An ophthalmologic visit for dilated funduscopic examination was performed during the screening period. Additionally, fundus photography was performed on each subject prior to initiation of treatment with rhIGF-I or placebo between day 7 and day 1. When optic disc swelling was detected on the initial baseline photograph, the subject was terminated from the study immediately. If the baseline photograph was scored at an Early Treatment Diabetic Retinopathy Study (ETDRS) scale of greater than 35 in either eye, the subject was also not allowed to progress further in the study.
Both the ophthalmologic examination and fundus photography were repeated at the completion of the treatment period or at the early termination visit in the event of premature termination. The ophthalmologic exam was performed within 3 days of the fundus photography. In the event that optic disc swelling was detected on the fundus photograph obtained at the week 12 or early termination visits, subjects were asked to return for repeat fundus photography at 1-3 months following discontinuation from the study, and again at 3-month intervals until the optic disc swelling resolved.
Fundus photographs, obtained for each subject at week 12 or at the early termination visit, were compared with the photographs obtained prior to treatment in order to evaluate the development of retinopathy during the course of the study. The photographs for each eye were graded using the final version of the ETDRS scale. The resulting scores for each eye were combined to yield the ETDRS person score. A change between day 1 and week 12 (or early termination) in the full scale ETDRS person score of three or more levels (5 units) was recorded as a progression of retinopathy and as an adverse event.
A change in ETDRS level was the maximum difference between baseline and on-study or post-treatment values. A negative change indicated improvement.

[2] = rats, catabolic state induced by diabetes, dexamethasone, or intestinal resection; cited from earlier work
[3] = mini-poodles; cited from earlier work
[4] = injected in castrated male sheep; cited from earlier work
[5] = Abdominal CT scan: visceral (VAT) and subcutaneous (SAT) adipose tissue, abdominal perimeter; format: in vivo, human; details: for change in abdominal perimeter by CT scan, mean±SEM: 12 weeks
Procedure: All CT scans were performed on GE Sytec 4000 CT scanners or an equivalent scanner.
An initial Abdominal Scan was performed using the following procedure: • 1. After the thigh scan was complete, a small triangular wedge pillow was placed under the subject's knees to help tilt the spine to the correct position. The arms were crossed over the chest/neck with elbows up and out of the way of the abdomen. The subject's underpants were pulled down so that the elastic of the underwear was well out of the way of the site where the scan was taken. • 2. The technician positioned the bed in the scanner so that a lateral topogram could be taken that included at least T12 through L5 of the spine. This picture was recorded on film. • 3. The location of the midsection of L3 was identified. • 4. A 10-mm slice at the level of the midpoint of L3 (angle must be zero so that the slice was perpendicular) was taken at the same settings as were used for the thigh slice, with the exception of the DFOV, which was 35 or 45 (35 for a small person and 45 for a large person).
The entire cross section of the abdomen was on the screen. If the entire abdomen was not on the screen, the picture was reconfigured. Once the entire abdomen was on the screen, the technician downloaded it onto the disk and verified that the image was actually on the disk. This was then recorded on film. • 5. The technician sent the film to the printer at this point. It was a requirement that each film had four pictures, and the film had the lateral topogram of the spine and the slice. • 6. The technician then recorded the exam number, the series number, and the image number of slice. • 7. The subject was then removed from the table if there were no more measurements to obtain and the film was collected.
The same procedures were then followed for the repeat abdominal scans with identical settings and locations being used for the repeat scans.
Slices were downloaded onto the scanner and then retrieved via optical disk (or the Internet if possible) to a computer for analysis. During analysis, the area of intra-abdominal and subcutaneous fat as well as oblique, psoas, quadratum laborum, and sacrospinalis muscles were measured. The images were digitized by optical density to separate bone, muscle, and fat compartments using a modified version of the NIH IMAGE program. Pixel units were converted to area measurements using an internal calibration standard. Digitized images were analyzed in a blinded fashion. The coefficient of variation of repeated analysis of a single scan is <1.5%.
Another independent measurement was that the CT scan assessed the abdominal diameter and the abdominal perimeter (e.g., belt size). The abdominal perimeter in subjects treated with glyburide alone was unchanged (−0.3±0.8 cm, mean±SEM) but in subjects treated with IGF-I at 20 micrograms/kg it was reduced (−1.4±0.8 cm) and was reduced even more in subjects treated with 40 micrograms/kg to (−2.9±1.3 cm). This reduction in “girth” caused by high dose IGF-I was, in layman's terms over an inch, or one belt notch, clearly a significant effect in only 12 weeks.
The body components contributing to these beneficial effects of IGF-I on body weight, BMI and girth were then analyzed by studying the changes in body composition as measured by computerized scanning. Two scans were performed. A scan was performed before treatment with IGF-I and another scan was performed after treatment with IGF-I. These two scans were analyzed by measuring the area of fat so that the effect of treatment with IGF-I could be ascertained.
The effect of IGF-I on body fat was estimated using the visceral adipose tissue (VAT) in abdomen and the subcutaneous adipose tissue (SAT) in the abdomen. The absolute changes in fat and the percent changes in fat were both analyzed. The percent changes were analyzed to guard against subjects with larger amounts of fat being given undue statistical weight in the analyses. […]

[6] = IGF-I administration in human subjects; cited from earlier work
[7] = Adverse events judged possibly or probably related to study drug; details: glyburide 10 mg BID + rhIGF-I placebo (N = 34)
Procedure: All adverse events occurring during the treatment and post-treatment periods of the study (day 1 to week 14) were monitored through the follow-up evaluation at week 14. Adverse events continuing beyond the follow-up period were monitored until resolution, as appropriate.
In addition to the adverse events described above, hypoglycemia was expected to occur in some subjects. Hypoglycemia was defined as a BG of <50 mg/dL as indicated by the One-Touch Profile BG meter or the clinical laboratory. In the event of repeated hypoglycemic episodes, the glyburide dose could be decreased (during the treatment period only). Symptomatic hypoglycemic episodes, regardless of blood glucose reading, were documented as hypoglycemia.

[8] = IGF-I 20 μg/kg BID, with glyburide (n = 36) or glyburide placebo (n = 35)
[9] = IGF-I 40 μg/kg BID, with glyburide (n = 36) or glyburide placebo (n = 33)
[10] = IGF-I 20 μg/kg, with glyburide or glyburide placebo per label
[11] = IGF-I 40 μg/kg, with glyburide or glyburide placebo per label
[12] = glyburide 10 mg BID + rhIGF-I placebo (n = 29)
[13] = glyburide active + IGF-I placebo
[14] = glyburide active + IGF-I placebo, abdominal CT, change from baseline

## IGF-I: recombinant human insulin-like growth factor-I from Genentech; sterile benzyl alcohol-preserved solution, 70 mg in 7 mL acetate/NaCl, pH 5.4; given SC
[1]; [8]
  Change in ETDRS levels: 1- to 2-step Progression: 4 (11) n (%)
  Change in ETDRS levels: No change: 24 (69) n (%)
  Change in ETDRS levels: −1- to −2-step progression (negative change = improvement): 6 (17) n (%)
  Change in ETDRS levels: ≧3-step progression: 1 (3) n (%)
[1]; IGF-I 20 μg/kg BID, with glyburide or placebo per label
  subjects showing an improvement in retinal score: 6 subjects
[1]; [9]
  Change in ETDRS levels: 1- to 2-step Progression: 7 (21) n (%)
  Change in ETDRS levels: No change: 20 (61) n (%)
  Change in ETDRS levels: −1- to −2-step progression (negative change = improvement): 5 (15) n (%)
  Change in ETDRS levels: ≧3-step progression: 0 n (%)
[1]; IGF-I 40 μg/kg BID, with glyburide or placebo per label
  subjects showing an improvement in retinal score: 5 subjects
[1]; IGF-I 20 or 40 μg/kg BID, 12 weeks, type II DM subjects
  progression of retinopathy (increases in the ETDRS scores): did not cause a progression of retinopathy
[2]
  percentage of body fat: trend toward a lower percentage of body fat
[3]
  body mass index: reduced body mass index
[4]
  effect on body fat: no detectable effect
  insulin levels: lowered insulin levels
[5]; [10]
  Change in SAT, mean (SEM): −12.3 (4.1) cm^2
  Change in VAT, mean (SEM): 1.0 (9.0) cm^2
  Mean SAT % Change (SEM): −6.0 (2.6) %
  Mean VAT % Change (SEM): 1.0 (4.0) %
[5]; [11]
  Change in SAT, mean (SEM): −16.1 (5.4) cm^2
  Change in VAT, mean (SEM): −20.0 (7.6) cm^2
  Mean SAT % Change (SEM): −6.4 (2.5) %
  Mean VAT % Change (SEM): −9.4 (3.9) %
[5]; IGF-I alone at 40 μg/kg
  visceral fat area reduced by: ~10%
[5]; IGF-I at 20 micrograms/kg
  change in abdominal perimeter by CT scan, mean±SEM: −1.4±0.8 cm
[5]; IGF-I at 40 micrograms/kg
  change in abdominal perimeter by CT scan, mean±SEM: −2.9±1.3 cm
[6]
  effect on body fat and body composition: little effect

## COc1ccc(Cl)cc1C(=O)NCCc1ccc(S(=O)(=O)NC(=O)NC2CCCCC2)cc1 [Glyburide, glyburide, reference compound]
[1]; Placebo/glyburide group
  subjects showing an improvement in retinal score: one
[1]; [12]
  Change in ETDRS levels: 1- to 2-step Progression: 8 (28) n (%)
  Change in ETDRS levels: No change: 19 (66) n (%)
  Change in ETDRS levels: −1- to −2-step progression (negative change = improvement): 1 (3) n (%)
  Change in ETDRS levels: ≧3-step progression: 1 (3) n (%)
[7]
  Adverse event: Arthralgia: 1 (3) n (%)
  Adverse event: Asthenia: 2 (6) n (%)
  Adverse event: Headache: 2 (6) n (%)
  Adverse event: Hypoglycemia: 3 (9) n (%)
  Adverse event: Jaw pain: 1 (3) n (%)
  Adverse event: Pain: 2 (6) n (%)
  Adverse event: Peripheral Edema: 0 n (%)
[5]; [13]
  Mean SAT % Change (SEM): 1% and 1.0 (1.9) %
  Mean VAT % Change (SEM): 9% and 9.3 (3.9) %
[5]; [14]
  Change in SAT, mean (SEM): 2.0 (5.6) cm^2
  Change in VAT, mean (SEM): 13.6 (6.4) cm^2
[5]; glyburide alone
  change in abdominal perimeter by CT scan, mean±SEM: −0.3±0.8 cm
